The values below come from publication PMC8143456 (Microorganisms, 2021).

What is called EC50 is the concentration giving half of the maximal effect. As usually defined, the EC90 is the concentration needed for an effect of 90%. What is called inhibition is the relative decrease from the control value, in per cent. Broadly, the IC50 is the midpoint of a concentration-inhibition curve. The term CC50 denotes the concentration at which the toxic effect on the cells reaches its halfway point. Usually ΔTm stands for the shift of the melting midpoint relative to a reference.

Where two headings read alike, the source gives them in different places. Where only a bound is given, the exact number is not on record here.

Data set [1] deals with SARS-CoV-2. The data set is described as follows: microbe, parasite or virus in culture. Type of data set: cell-based. Conditions: for EC50: read-out: Antiviral Activity against SARS-CoV-2 Vero EC50; for EC90: read-out: Antiviral Activity against SARS-CoV-2 Vero EC90; for inhibition at 20 µM: read-out: inhibition of SARS-CoV-2 in the initial antiviral evaluation assay.
The subject of data set [2] is SARS-CoV-2. The data set can be described thus: SARS-CoV-2 antiviral activity assay in Calu-3 cells. In kind it is cell-based.
In data set [3] the test system is SARS-CoV-2. The data set is described as follows: Time-of-drug-addition assay in Vero cells. In kind it is cell-based. As to conditions: compound at EC90, Vero cells, MOI 0.1.
The test system of another data set is SARS-CoV-2 pseudovirus. The data set can be described thus: microbe, parasite or virus in culture. Type of data set: cell-based. Conditions: for inhibition at 1.1 µM / inhibition at 3.3 µM / inhibition at 10 µM / inhibition at 30 µM: Severe acute respiratory syndrome-related coronavirus, Huh7.5 cells, vs untreated sample, read-out: SARS-CoV-2 Pseudovirus Entry Inhibition (%).

The target in data set [4] is SARS-CoV-2 RNA polymerase complex (nsp12/nsp7/nsp8) (Severe acute respiratory syndrome coronavirus 2, UniProt P0DTD1). The data set can be described thus: SARS-CoV-2 RdRp primer extension assay. In kind it is biochemical. As to conditions: 14-nucleotide RNA product on gel.
The test system of data set [5] is SARS-CoV-2 3CL protease (nsp5). On the set-up: method as in PMID 32746637. As to conditions: previous report ref 29; read-out: IC50, enzymatic activity of SARS-CoV-2 3CL protease (nsp5); cited from earlier work.
The next data set concerns SARS-CoV-2 3CL. Conditions: enzyme-inhibition experiments ref 31; read-out: IC50, antiprotease activity against SARS-CoV-2 3CL; cited from earlier work.
The test system of data set [6] is SARS-CoV-2. As to conditions: Vero E6 cells ref 31; cited from earlier work.
A short description of data set [7]: Cytotoxicity in Calu3 cells. As to conditions: human.
Data set [8] is described as follows: MTS cytotoxicity assay in Vero cells. As to conditions: African green monkey. On the technique in general: Tetrazolium assays rely on reduction of a dye to a coloured formazan, in cell work by metabolically active cells.
Data set [9] concerns the target SARS-CoV-2 nsp5 (3CL protease) (Severe acute respiratory syndrome coronavirus 2, UniProt P0DTD1). Conditions: nsp5, 50 µM compound vs DMSO.
The target in the next data set is SARS-CoV-2 nsp12 (RdRp) (Severe acute respiratory syndrome coronavirus 2, UniProt P0DTD1). Conditions: nsp12, 50 µM compound vs DMSO.
The next data set concerns the target SARS-CoV-2 nsp14 (Severe acute respiratory syndrome coronavirus 2, UniProt P0DTD1). As to conditions: nsp14, 50 µM compound vs DMSO.
Where [10] appears, read: Severe acute respiratory syndrome coronavirus 2, 48 h, Vero cells, MOI 0.1, virus yield 2 days post-treatment.
The mark [11] stands for this setting: Severe acute respiratory syndrome coronavirus 2, Vero.
Setting [12] is: Severe acute respiratory syndrome coronavirus 2, human Calu-3 cells, read-out: Antiviral Activity against SARS-CoV-2 Calu-3 EC50.
Where [13] appears, read: Severe acute respiratory syndrome coronavirus 2, human Calu-3 cells, read-out: Antiviral Activity against SARS-CoV-2 Calu-3 EC90.
[14] abbreviates: Severe acute respiratory syndrome coronavirus 2, Vero, 48 h.

As to `O=C(O)[C@H]1O[C@@H](Oc2cc3oc(-c4ccccc4)cc(=O)c3c(O)c2O)[C@H](O)[C@@H](O)[C@@H]1O` [Baicalin, baicalin], in the data set with SARS-CoV-2 [1] (setting [10]), the half-maximal effective concentration (EC50) came to 9 ± 0.08 µM and the EC90 stood at 15.8 ± 0.2 µM. Besides, in the data set on SARS-CoV-2 [1] (setting [11]), the inhibition at 20 µM stood at 98%. Besides, in the data set on SARS-CoV-2 [2] (setting [12]), the 50% effective concentration (EC50) stood at 8 ± 0.11 µM. For the same compound, in the data set on SARS-CoV-2 [2] (setting [13]), the EC90 was determined as 15.1 ± 0.2 µM. In addition, the “time of addition post-infection up to which replication is significantly inhibited” value in the data set on SARS-CoV-2 [3] is on record as “up to 6 h”. For the same compound, in the data set on SARS-CoV-2 pseudovirus, the “inhibitory activity on SARS-CoV-2 cell entry (in words)” value is listed as “no inhibitory activity”, the inhibition at 1.1 µM is -12.1%, the inhibition at 3.3 µM is -11.9% and the inhibition at 10 µM was -6.6%. In addition, in the data set with SARS-CoV-2 pseudovirus, the inhibition at 30 µM was -3.3%. Moreover, in [4], the “inhibition of SARS-CoV-2 RdRp activity (in words)” value was “inhibit the activity of the SARS-CoV-2 RdRp”. In [5], the IC50 was 34.7 µM. Further, the IC50 with SARS-CoV-2 3CL was 6.41 µM. Moreover, the EC50 with SARS-CoV-2 [6] was 27.9 µM. Also, in data set [7], the CC50 is more than 100 µM. The 50% cytotoxic concentration (CC50) at 4 days in data set [8] is more than 100 µM.
On to `CCC(CC)COC(=O)[C@H](C)N[P@](=O)(OC[C@H]1O[C@@](C#N)(c2ccc3c(N)ncnn23)[C@H](O)[C@@H]1O)Oc1ccccc1` [Remdesivir, reference compound], for which the EC50 in the data set with SARS-CoV-2 [1] (setting [14]) worked out at 1 ± 0.1 µM; with SARS-CoV-2 [2] (Severe acute respiratory syndrome coronavirus 2, Calu-3, read-out: Antiviral Activity against SARS-CoV-2 Calu-3 EC50), 0.14 ± 0.02 µM. Further, the EC90 in the data set with SARS-CoV-2 [1] (setting [14]) worked out at 3.3 ± 0.3 µM; with SARS-CoV-2 [2] (Severe acute respiratory syndrome coronavirus 2, Calu-3, read-out: Antiviral Activity against SARS-CoV-2 Calu-3 EC90), 0.5 ± 0.03 µM. The compound also gave a half-maximal cytotoxic concentration (CC50) in [7] of more than 100 µM.
On to `O=c1cc(-c2ccccc2)oc2cc(O)c(O)c(O)c12` [Baicalein, baicalein], for which the results for the EC50 in the data set on SARS-CoV-2 [1] (setting [10]), in the data set with SARS-CoV-2 [2] (setting [12]) and in the data set with SARS-CoV-2 [6] were 4.5 ± 0.2 µM, 1.2 ± 0.03 µM and 2.94 µM, respectively. The figures for the 90% effect concentration (EC90) with SARS-CoV-2 [1] (setting [10]) and with SARS-CoV-2 [2] (setting [13]) were 7.6 ± 0.3 µM and 6.2 ± 0.04 µM, respectively. In the data set with SARS-CoV-2 [1] (setting [11]), the inhibition at 20 µM was found to be 99.8%. Moreover, in the data set on SARS-CoV-2 [3], the “time of addition post-infection up to which replication is significantly inhibited” value is “up to 8 h”. The “inhibitory activity on SARS-CoV-2 cell entry (in words)” value in the data set on SARS-CoV-2 pseudovirus is reported as “no inhibitory activity”. In addition, in the data set on SARS-CoV-2 pseudovirus, the inhibition at 1.1 µM was -2%. The inhibition at 3.3 µM in the data set with SARS-CoV-2 pseudovirus is -1.9%. In addition, in the data set on SARS-CoV-2 pseudovirus, the inhibition at 10 µM is 3.9%. The inhibition at 30 µM with SARS-CoV-2 pseudovirus came to 14.6%. In data set [4], the “inhibition of SARS-CoV-2 RdRp activity (in words)” value is “more potent inhibition of SARS-CoV-2 RdRp activity compared to baicalin”. Further, the shift in melting temperature (ΔTm) was 0.9 °C in [9], 3.9 °C on SARS-CoV-2 nsp12 (RdRp) and 1.5 °C at SARS-CoV-2 nsp14. Further, the IC50 in the data set on SARS-CoV-2 3CL is 0.94 µM. Besides, the half-maximal cytotoxic concentration (CC50) in data set [7] (Calu3 cells) was found to be 91 ± 0.05 µM.
